Results reported in patent US6737383B1, “Herbicidal oxadiazolidines” (priority 1999, dated 2004).

Assays:
sugar beet = experiment: Test B pre/postemergence sugar beet; format: in vivo, Beta vulgaris
Method in brief: (§1)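 Response is a visual 0-to-10 score relative to untreated plants, where 0 means no effect and 10 means complete control, taken twelve to sixteen days after application. Treatments went onto soil at planting and onto foliage of 1- to 4-leaf plants, using a surfactant-containing non-phytotoxic solvent.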

rape = experiment: Test B pre/postemergence rape; format: in vivo, Brassica napus
Method in brief: as §1

purple nutsedge = experiment: Test B pre/postemergence purple nutsedge; format: in vivo, Cyperus rotundus
Method in brief: as §1

rice = experiment: Test B flood test rice; format: in vivo, Oryza sativa
Method in brief: (§2)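 Each value is a visual injury score relative to controls, with 10 meaning complete control and 0 no effect. Evaluation took place twelve to sixteen days after the 2-leaf-stage plants were treated and kept in the greenhouse.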

wheat = experiment: Test B pre/postemergence wheat; format: in vivo, Triticum aestivum
Method in brief: as §1

wild oat = experiment: Test B pre/postemergence wild oat; format: in vivo, Avena fatua
Method in brief: as §1

crabgrass = experiment: Test B pre/postemergence crabgrass; format: in vivo, Digitaria sanguinalis
Method in brief: as §1

surinam grass = experiment: Test B pre/postemergence surinam grass; format: in vivo, Brachiaria decumbens
Method in brief: as §1

corn = experiment: Test B pre/postemergence corn; format: in vivo, Zea mays
Method in brief: as §1

smallflower flatsedge = experiment: Test B flood test smallflower flatsedge; format: in vivo, Cyperus difformis
Method in brief: as §2

blackgrass = experiment: Test B pre/postemergence blackgrass; format: in vivo, Alopecurus myosuroides
Method in brief: as §1

velvetleaf = experiment: Test B pre/postemergence velvetleaf; format: in vivo, Abutilon theophrasti
Method in brief: as §1

pigweed = experiment: Test B pre/postemergence pigweed; format: in vivo, Amaranthus retroflexus
Method in brief: as §1

bedstraw = experiment: Test B pre/postemergence bedstraw; format: in vivo, Galium aparine
Method in brief: as §1

duck salad = experiment: Test B flood test duck salad; format: in vivo, Heteranthera limosa
Method in brief: as §2

soybean = experiment: Test B pre/postemergence soybean; format: in vivo, Glycine max
Method in brief: as §1

[1] = Postemergence, Rate 250 g/ha, scale 0 to 10, 0 is no effect, 10 is complete control
[2] = Postemergence, Rate 500 g/ha, scale of 0 to 10 where 0 is no effect and 10 is complete control
[3] = Preemergence, Rate 62 g/ha, scale 0 to 10 (0 no effect, 10 complete control)
[4] = Preemergence, Rate 125 g/ha, scale of 0 to 10 where 0 is no effect and 10 is complete control
[5] = Preemergence, Rate 250 g/ha, scale 0 to 10, 0 is no effect, 10 is complete control
[6] = Preemergence, Rate 500 g/ha, scale 0 to 10, 0 is no effect, 10 is complete control
[7] = Rate 62 g/ha, Postemergence, scale of 0 to 10 where 0 is no effect and 10 is complete control
[8] = Postemergence section (flood test species), Rate 500 g/ha, scale of 0 to 10 where 0 is no effect and 10 is complete control
[9] = Rate 62 g/ha, Postemergence (flood test species), scale of 0 to 10 where 0 is no effect and 10 is complete control
[10] = flood test species, listed under Postemergence, Rate 250 g/ha, scale 0 to 10, 0 is no effect, 10 is complete control
[11] = Postemergence, Rate 125 g/ha, scale 0 to 10, 0 is no effect, 10 is complete control
[12] = Preemergence, Rate 250 g/ha, scale of 0 to 10 where 0 is no effect and 10 is complete control
[13] = Preemergence, Rate 500 g/ha, scale of 0 to 10 where 0 is no effect and 10 is complete control
[14] = Rate 62 g/ha, flood test species, Pre-emergence, visual evaluation after twelve to sixteen days
[15] = Rate 125 g/ha, under heading Pre-emergence, flood test species, visual evaluation after twelve to sixteen days
[16] = Rate 250 g/ha, Pre-emergence (flood test species), scale 0 to 10, 0 is no effect, 10 is complete control
[17] = Rate 500 g/ha, Pre-emergence, flood test species, scale 0 to 10 (0 no effect, 10 complete control)

Structure (SMILES): CC(C)N(C(=O)n1oc(=O)n(CCCC(F)(F)F)c1=O)c1ccc(F)cc1 [Compound 398]
- Plant response rating, Sugarbeets (sugar beet; [1]): 0
- Sugarbeets plant response rating (sugar beet; [2]): 0
- Plant response rating, Sugarbeets (sugar beet; [3]): 0
- Plant response rating, Sugarbeets (sugar beet; [4]): 4
- Sugarbeets plant response rating (sugar beet; [5]): 4
- Sugarbeets plant response rating (sugar beet; [6]): 9
- Sugarbeets plant response rating (sugar beet; [7]): 0
- Plant response rating, Rape (rape; [1]): 2
- Rape plant response rating (rape; [2]): 2
- Plant response rating, Rape (rape; [3]): 0
- Plant response rating, Rape (rape; [4]): 3
- Rape plant response rating (rape; [5]): 8
- Rape plant response rating (rape; [6]): 10
- Rape plant response rating (rape; [7]): 0
- Plant response rating, Nutsedge (purple nutsedge; [1]): 0
- Nutsedge plant response rating (purple nutsedge; [2]): 0
- Plant response rating, Nutsedge (purple nutsedge; [3]): 0
- Plant response rating, Nutsedge (purple nutsedge; [4]): 0
- Nutsedge plant response rating (purple nutsedge; [5]): 0
- Nutsedge plant response rating (purple nutsedge; [6]): 0
- Nutsedge plant response rating (purple nutsedge; [7]): 0
- Rice plant response rating (rice; [8]): 0
- Rice plant response rating (rice; [9]): 0
- Plant response rating, Rice (rice; [10]): 0
- Wheat plant response rating (wheat; [2]): 3
- Plant response rating, Wheat (wheat; [3]): 0
- Plant response rating, Wheat (wheat; [4]): 0
- Wheat plant response rating (wheat; [5]): 0
- Wheat plant response rating (wheat; [6]): 2
- Wheat plant response rating (wheat; [7]): 0
- Wild oats plant response rating (wild oat; [2]): 0
- Plant response rating, Wild oats (wild oat; [3]): 0
- Plant response rating, Wild oats (wild oat; [4]): 3
- Wild oats plant response rating (wild oat; [5]): 3
- Wild oats plant response rating (wild oat; [6]): 8
- Wild oats plant response rating (wild oat; [7]): 0
- Plant response rating, Crabgrass (crabgrass; [11]): 3
- Plant response rating, Crabgrass (crabgrass; [1]): 9
- Crabgrass plant response rating (crabgrass; [2]): 9
- Plant response rating, Crabgrass (crabgrass; [3]): 9
- Plant response rating, Crabgrass (crabgrass; [4]): 10
- Crabgrass plant response rating (crabgrass; [5]): 10
- Crabgrass plant response rating (crabgrass; [6]): 10
- Crabgrass plant response rating (crabgrass; [7]): 2
- Plant response rating, B. signalgrass (surinam grass; [11]): 0
- Plant response rating, B. signalgrass (surinam grass; [1]): 2
- B. signalgrass plant response rating (surinam grass; [2]): 8
- Plant response rating, B. signalgrass (surinam grass; [3]): 0
- Plant response rating, B. signalgrass (surinam grass; [4]): 2
- B. signalgrass plant response rating (surinam grass; [12]): 6
- B. signalgrass plant response rating (surinam grass; [13]): 10
- B. signalgrass plant response rating (surinam grass; [7]): 0
- Plant response rating, Corn (corn; [11]): 0
- Plant response rating, Corn (corn; [1]): 0
- Corn plant response rating (corn; [2]): 0
- Plant response rating, Corn (corn; [3]): 0
- Plant response rating, Corn (corn; [4]): 0
- Corn plant response rating (corn; [5]): 0
- Corn plant response rating (corn; [6]): 8
- Corn plant response rating (corn; [7]): 0
- S. Flatsedge plant response rating (smallflower flatsedge; [8]): 0
- S. Flatsedge plant response rating (smallflower flatsedge; [9]): 0
- Plant response rating, S. Flatsedge (smallflower flatsedge; [10]): 0
- Plant response rating, Blackgrass (blackgrass; [11]): 6
- Plant response rating, Blackgrass (blackgrass; [1]): 9
- Blackgrass plant response rating (blackgrass; [2]): 9
- Plant response rating, Blackgrass (blackgrass; [3]): 3
- Plant response rating, Blackgrass (blackgrass; [4]): 8
- Blackgrass plant response rating (blackgrass; [12]): 8
- Blackgrass plant response rating (blackgrass; [6]): 10
- Blackgrass plant response rating (blackgrass; [7]): 0
- Plant response rating, Velvetleaf (velvetleaf; [1]): 0
- Velvetleaf plant response rating (velvetleaf; [2]): 5
- Plant response rating, Velvetleaf (velvetleaf; [3]): 0
- Plant response rating, Velvetleaf (velvetleaf; [4]): 2
- Velvetleaf plant response rating (velvetleaf; [5]): 6
- Velvetleaf plant response rating (velvetleaf; [6]): 7
- Velvetleaf plant response rating (velvetleaf; [7]): 0
- Plant response rating, Redroot pigweed (pigweed; [1]): 3
- Redroot pigweed plant response rating (pigweed; [2]): 5
- Plant response rating, Redroot pigweed (pigweed; [3]): 2
- Plant response rating, Redroot pigweed (pigweed; [4]): 5
- Redroot pigweed plant response rating (pigweed; [5]): 10
- Redroot pigweed plant response rating (pigweed; [6]): 10
- Redroot pigweed plant response rating (pigweed; [7]): 0
- Bedstraw plant response rating (bedstraw; [2]): 9
- Plant response rating, Ducksalad (duck salad; Postemergence (flood test), Rate 125 g/ha, scale 0 to 10, 0 is no effect, 10 is complete control): 0
- Ducksalad plant response rating (duck salad; [8]): 0
- Ducksalad plant response rating (duck salad; [9]): 0
- Plant response rating, Ducksalad (duck salad; [10]): 0
- Plant response rating, Soybean (soybean; [1]): 4
- Soybean plant response rating (soybean; [2]): 6
- Plant response rating, Soybean (soybean; [3]): 0
- Plant response rating, Soybean (soybean; [4]): 0
- Soybean plant response rating (soybean; [5]): 0
- Soybean plant response rating (soybean; [6]): 0
- Soybean plant response rating (soybean; [7]): 3

Structure (SMILES): C=CC[Si](C)(C)Cn1c(=O)on(C(=O)N(c2ccc(Cl)cc2)C(C)C)c1=O [Compound 414]
- Plant response rating, Sugarbeets (sugar beet; [1]): 0
- Sugarbeets plant response rating (sugar beet; [2]): 0
- Plant response rating, Sugarbeets (sugar beet; [3]): 0
- Plant response rating, Sugarbeets (sugar beet; [4]): 0
- Sugarbeets plant response rating (sugar beet; [5]): 0
- Sugarbeets plant response rating (sugar beet; [6]): 0
- Plant response rating, Rape (rape; [1]): 0
- Rape plant response rating (rape; [2]): 0
- Plant response rating, Rape (rape; [3]): 0
- Plant response rating, Rape (rape; [4]): 0
- Rape plant response rating (rape; [5]): 0
- Rape plant response rating (rape; [6]): 0
- Plant response rating, Nutsedge (purple nutsedge; [1]): 0
- Nutsedge plant response rating (purple nutsedge; [2]): 0
- Plant response rating, Nutsedge (purple nutsedge; [3]): 0
- Plant response rating, Nutsedge (purple nutsedge; [4]): 0
- Nutsedge plant response rating (purple nutsedge; [5]): 0
- Plant response rating, Rice (0 to 10 scale, 0 is no effect, 10 is complete control) (rice; [14]): 0
- Rice plant response rating (0 to 10 scale, 0 is no effect, 10 is complete control) (rice; [15]): 0
- Rice plant response rating (rice; [16]): 0
- Rice plant response rating (rice; [17]): 0
- Wheat plant response rating (wheat; [2]): 0
- Plant response rating, Wheat (wheat; [3]): 0
- Plant response rating, Wheat (wheat; [4]): 0
- Wheat plant response rating (wheat; [5]): 0
- Wheat plant response rating (wheat; [6]): 0
- Wild oats plant response rating (wild oat; [2]): 2
- Plant response rating, Wild oats (wild oat; [3]): 0
- Plant response rating, Wild oats (wild oat; [4]): 0
- Wild oats plant response rating (wild oat; [5]): 2
- Wild oats plant response rating (wild oat; [6]): 7
- Plant response rating, Crabgrass (crabgrass; [11]): 3
- Plant response rating, Crabgrass (crabgrass; [1]): 6
- Crabgrass plant response rating (crabgrass; [2]): 9
- Plant response rating, Crabgrass (crabgrass; [3]): 2
- Plant response rating, Crabgrass (crabgrass; [4]): 7
- Crabgrass plant response rating (crabgrass; [5]): 9
- Crabgrass plant response rating (crabgrass; [6]): 10
- Crabgrass plant response rating (crabgrass; [7]): 1
- Plant response rating, B. signalgrass (surinam grass; [11]): 0
- Plant response rating, B. signalgrass (surinam grass; [1]): 1
- B. signalgrass plant response rating (surinam grass; [2]): 6
- Plant response rating, B. signalgrass (surinam grass; [3]): 0
- Plant response rating, B. signalgrass (surinam grass; [4]): 0
- B. signalgrass plant response rating (surinam grass; [12]): 1
- B. signalgrass plant response rating (surinam grass; [13]): 5
- B. signalgrass plant response rating (surinam grass; [7]): 0
- Plant response rating, Corn (corn; [11]): 0
- Plant response rating, Corn (corn; [1]): 0
- Corn plant response rating (corn; [2]): 0
- Plant response rating, Corn (corn; [3]): 0
- Plant response rating, Corn (corn; [4]): 0
- Corn plant response rating (corn; [5]): 0
- Corn plant response rating (corn; [6]): 0
- Corn plant response rating (corn; [7]): 0
- Plant response rating, S. Flatsedge (0 to 10 scale, 0 is no effect, 10 is complete control) (smallflower flatsedge; [14]): 0
- S. Flatsedge plant response rating (0 to 10 scale, 0 is no effect, 10 is complete control) (smallflower flatsedge; [15]): 0
- S. Flatsedge plant response rating (smallflower flatsedge; [16]): 0
- S. Flatsedge plant response rating (smallflower flatsedge; [17]): 0
- Plant response rating, Blackgrass (blackgrass; [11]): 2
- Plant response rating, Blackgrass (blackgrass; [1]): 5
- Blackgrass plant response rating (blackgrass; [2]): 7
- Plant response rating, Blackgrass (blackgrass; [3]): 0
- Plant response rating, Blackgrass (blackgrass; [4]): 0
- Blackgrass plant response rating (blackgrass; [12]): 3
- Blackgrass plant response rating (blackgrass; [6]): 10
- Blackgrass plant response rating (blackgrass; [7]): 0
- Plant response rating, Velvetleaf (velvetleaf; [1]): 0
- Velvetleaf plant response rating (velvetleaf; [2]): 0
- Plant response rating, Velvetleaf (velvetleaf; [3]): 0
- Plant response rating, Velvetleaf (velvetleaf; [4]): 0
- Velvetleaf plant response rating (velvetleaf; [5]): 0
- Velvetleaf plant response rating (velvetleaf; [6]): 0
- Plant response rating, Redroot pigweed (pigweed; [1]): 0
- Redroot pigweed plant response rating (pigweed; [2]): 0
- Plant response rating, Redroot pigweed (pigweed; [3]): 0
- Plant response rating, Redroot pigweed (pigweed; [4]): 0
- Redroot pigweed plant response rating (pigweed; [5]): 0
- Redroot pigweed plant response rating (pigweed; [6]): 0
- Plant response rating, Bedstraw (bedstraw; [3]): 0
- Plant response rating, Bedstraw (bedstraw; [4]): 0
- Bedstraw plant response rating (bedstraw; [12]): 0
- Bedstraw plant response rating (bedstraw; [6]): 0
- Plant response rating, Ducksalad (0 to 10 scale, 0 is no effect, 10 is complete control) (duck salad; [14]): 0
- Ducksalad plant response rating (0 to 10 scale, 0 is no effect, 10 is complete control) (duck salad; [15]): 0
- Ducksalad plant response rating (duck salad; [16]): 0
- Ducksalad plant response rating (duck salad; [17]): 0
- Plant response rating, Soybean (soybean; [1]): 2
- Soybean plant response rating (soybean; [2]): 3
- Plant response rating, Soybean (soybean; [3]): 0
- Plant response rating, Soybean (soybean; [4]): 0
- Soybean plant response rating (soybean; [5]): 0
- Soybean plant response rating (soybean; [6]): 0
